Assay [1] deals with Aurora kinase B (Homo sapiens) (UniProt Q96GD4). Description: AURKB SGC Tm panel (DSF). The note with it: for ΔTm: Compound concentration 10.0 uM.
In assay [2] the target is Calcium/calmodulin-dependent protein kinase type 1G (Homo sapiens) (UniProt Q96NX5). Description: CAMK1G SGC Tm panel (DSF). The note with it: for ΔTm: Compound concentration 10.0 uM.
The target in assay [3] is T1, Mitogen-activated protein kinase kinase kinase 5 (Homo sapiens) (UniProt Q99683).
T1 sequence (whole entry): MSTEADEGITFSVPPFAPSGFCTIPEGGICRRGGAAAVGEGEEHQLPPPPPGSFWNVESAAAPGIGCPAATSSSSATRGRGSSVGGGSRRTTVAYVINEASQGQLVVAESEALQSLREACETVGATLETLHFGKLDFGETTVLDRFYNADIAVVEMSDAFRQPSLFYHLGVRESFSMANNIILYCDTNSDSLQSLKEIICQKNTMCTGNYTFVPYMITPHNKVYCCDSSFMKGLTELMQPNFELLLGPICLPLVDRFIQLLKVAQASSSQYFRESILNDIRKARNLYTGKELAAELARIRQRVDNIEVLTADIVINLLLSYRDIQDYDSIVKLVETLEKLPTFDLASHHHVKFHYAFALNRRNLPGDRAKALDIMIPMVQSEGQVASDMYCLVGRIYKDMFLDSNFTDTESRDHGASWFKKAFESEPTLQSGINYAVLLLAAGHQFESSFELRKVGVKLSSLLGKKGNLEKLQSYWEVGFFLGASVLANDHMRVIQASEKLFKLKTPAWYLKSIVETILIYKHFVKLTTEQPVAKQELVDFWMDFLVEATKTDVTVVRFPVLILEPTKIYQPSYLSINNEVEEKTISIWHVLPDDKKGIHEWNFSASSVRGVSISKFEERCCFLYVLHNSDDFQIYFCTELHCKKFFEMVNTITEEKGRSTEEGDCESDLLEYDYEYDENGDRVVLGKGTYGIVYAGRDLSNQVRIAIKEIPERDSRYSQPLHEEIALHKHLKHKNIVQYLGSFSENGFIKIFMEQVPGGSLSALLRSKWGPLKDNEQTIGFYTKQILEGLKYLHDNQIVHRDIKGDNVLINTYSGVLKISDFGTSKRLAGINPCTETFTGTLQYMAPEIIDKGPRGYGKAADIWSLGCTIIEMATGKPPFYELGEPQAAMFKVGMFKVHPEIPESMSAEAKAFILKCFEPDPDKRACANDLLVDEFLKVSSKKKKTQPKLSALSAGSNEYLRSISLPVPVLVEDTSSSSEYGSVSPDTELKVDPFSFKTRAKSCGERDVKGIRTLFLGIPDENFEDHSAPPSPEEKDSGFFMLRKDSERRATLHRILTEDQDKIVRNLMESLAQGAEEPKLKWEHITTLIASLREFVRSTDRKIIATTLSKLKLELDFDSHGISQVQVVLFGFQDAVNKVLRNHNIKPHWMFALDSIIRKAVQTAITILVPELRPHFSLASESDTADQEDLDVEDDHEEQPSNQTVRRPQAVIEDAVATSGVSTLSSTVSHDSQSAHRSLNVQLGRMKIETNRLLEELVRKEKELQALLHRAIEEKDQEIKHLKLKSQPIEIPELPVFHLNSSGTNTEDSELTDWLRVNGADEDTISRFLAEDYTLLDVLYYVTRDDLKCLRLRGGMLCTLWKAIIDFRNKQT
Kind of assay: MAP3K5 SGC Tm panel (DSF). The note with it: for ΔTm: Compound concentration 10.0 uM.

The target of assay [4] is MAP/microtubule affinity-regulating kinase 3 (Homo sapiens) (UniProt P27448). Kind of assay: MARK3 SGC Tm panel (DSF). The note with it: for ΔTm: Compound concentration 10.0 uM.
Sequence of MAP/microtubule affinity-regulating kinase 3 (Homo sapiens) (P27448 whole entry, looked up): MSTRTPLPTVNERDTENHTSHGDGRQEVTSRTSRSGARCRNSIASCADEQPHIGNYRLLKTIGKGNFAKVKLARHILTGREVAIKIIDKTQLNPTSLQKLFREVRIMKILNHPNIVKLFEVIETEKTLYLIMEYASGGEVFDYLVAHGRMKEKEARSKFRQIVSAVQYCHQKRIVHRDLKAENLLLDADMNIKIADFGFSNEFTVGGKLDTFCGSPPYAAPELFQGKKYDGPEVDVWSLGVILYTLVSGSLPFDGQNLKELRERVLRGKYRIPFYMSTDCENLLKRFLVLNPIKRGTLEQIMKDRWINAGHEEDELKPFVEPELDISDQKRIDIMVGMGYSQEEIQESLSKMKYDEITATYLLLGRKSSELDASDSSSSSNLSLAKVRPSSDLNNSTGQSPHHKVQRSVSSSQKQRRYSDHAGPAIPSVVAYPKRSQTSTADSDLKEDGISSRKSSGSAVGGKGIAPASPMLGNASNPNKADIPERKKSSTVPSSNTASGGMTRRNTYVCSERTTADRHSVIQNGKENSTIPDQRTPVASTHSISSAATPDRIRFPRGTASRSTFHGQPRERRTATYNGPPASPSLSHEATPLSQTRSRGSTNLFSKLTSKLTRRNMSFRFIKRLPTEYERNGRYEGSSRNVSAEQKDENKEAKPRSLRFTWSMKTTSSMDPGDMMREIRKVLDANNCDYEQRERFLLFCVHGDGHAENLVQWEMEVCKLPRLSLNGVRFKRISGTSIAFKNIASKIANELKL
Assay [5] concerns the target Serine/threonine-protein kinase PAK 1 (Homo sapiens) (UniProt Q13153). Description: PAK1 SGC Tm panel (DSF). To be noted: for ΔTm: Compound concentration 10.0 uM.
Assay [6] deals with T2, Serine/threonine-protein kinase ULK3 (Homo sapiens) (UniProt Q6PHR2).
T2 sequence (whole entry): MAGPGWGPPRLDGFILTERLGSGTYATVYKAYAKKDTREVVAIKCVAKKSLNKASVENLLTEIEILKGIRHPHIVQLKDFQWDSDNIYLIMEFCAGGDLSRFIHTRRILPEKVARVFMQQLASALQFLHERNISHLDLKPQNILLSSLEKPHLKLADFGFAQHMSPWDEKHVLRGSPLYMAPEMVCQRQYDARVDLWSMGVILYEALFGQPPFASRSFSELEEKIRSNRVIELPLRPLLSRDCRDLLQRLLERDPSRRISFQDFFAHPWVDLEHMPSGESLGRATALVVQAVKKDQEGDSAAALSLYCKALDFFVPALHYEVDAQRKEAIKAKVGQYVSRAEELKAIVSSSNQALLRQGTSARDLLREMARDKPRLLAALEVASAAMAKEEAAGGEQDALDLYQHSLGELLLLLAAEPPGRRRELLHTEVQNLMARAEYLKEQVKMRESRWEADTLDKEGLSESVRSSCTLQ
Kind of assay: ULK3 SGC Tm panel (DSF). The note with it: for ΔTm: Compound concentration 10.0 uM.

For assay [7], the target named is 5-hydroxytryptamine receptor 5A (Homo sapiens) (UniProt P47898). The note with it: Compound concentration 10.0 uM.
Sequence of 5-hydroxytryptamine receptor 5A (Homo sapiens) (P47898 whole entry): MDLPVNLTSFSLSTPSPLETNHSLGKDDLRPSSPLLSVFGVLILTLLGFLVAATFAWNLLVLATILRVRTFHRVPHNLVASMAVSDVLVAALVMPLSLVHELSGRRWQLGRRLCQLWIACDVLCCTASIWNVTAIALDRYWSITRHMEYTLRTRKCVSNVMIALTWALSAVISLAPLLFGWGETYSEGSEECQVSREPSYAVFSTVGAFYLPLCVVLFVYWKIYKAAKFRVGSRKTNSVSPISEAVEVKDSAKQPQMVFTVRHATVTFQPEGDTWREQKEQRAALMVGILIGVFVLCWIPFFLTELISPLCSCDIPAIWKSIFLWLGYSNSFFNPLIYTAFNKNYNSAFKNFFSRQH
For assay [8], the target named is Kappa-type opioid receptor (Homo sapiens) (UniProt P41145). The note with it: Compound concentration 10.0 uM.
Sequence of Kappa-type opioid receptor (Homo sapiens) (P41145 whole entry): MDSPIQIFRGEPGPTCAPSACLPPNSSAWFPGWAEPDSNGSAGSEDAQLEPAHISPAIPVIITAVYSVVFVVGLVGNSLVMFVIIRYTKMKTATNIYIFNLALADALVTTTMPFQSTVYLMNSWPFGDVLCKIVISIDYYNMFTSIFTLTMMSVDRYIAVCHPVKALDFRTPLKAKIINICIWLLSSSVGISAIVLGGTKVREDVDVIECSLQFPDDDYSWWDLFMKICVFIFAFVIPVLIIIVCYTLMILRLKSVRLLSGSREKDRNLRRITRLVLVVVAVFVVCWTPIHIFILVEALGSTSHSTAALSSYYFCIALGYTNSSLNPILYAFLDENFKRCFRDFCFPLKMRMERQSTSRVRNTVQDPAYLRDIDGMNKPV

Each structure is given as a SMILES string.

Sequence of Serine/threonine-protein kinase PAK 1 (Homo sapiens) (Q13153 whole entry): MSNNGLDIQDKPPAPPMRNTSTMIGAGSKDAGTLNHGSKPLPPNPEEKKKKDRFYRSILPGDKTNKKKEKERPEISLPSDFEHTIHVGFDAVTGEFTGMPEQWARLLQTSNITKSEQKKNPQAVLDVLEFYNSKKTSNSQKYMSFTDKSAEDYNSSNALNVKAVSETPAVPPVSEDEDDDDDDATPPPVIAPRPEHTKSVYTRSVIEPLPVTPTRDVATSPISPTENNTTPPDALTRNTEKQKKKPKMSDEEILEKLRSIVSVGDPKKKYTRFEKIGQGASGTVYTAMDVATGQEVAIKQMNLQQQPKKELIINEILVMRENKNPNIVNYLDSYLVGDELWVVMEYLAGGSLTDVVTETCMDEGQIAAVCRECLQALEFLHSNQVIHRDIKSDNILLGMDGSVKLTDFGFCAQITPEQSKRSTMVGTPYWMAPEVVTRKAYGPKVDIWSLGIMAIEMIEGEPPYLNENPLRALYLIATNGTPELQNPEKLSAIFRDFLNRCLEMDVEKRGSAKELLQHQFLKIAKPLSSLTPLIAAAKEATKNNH
Sequence of Calcium/calmodulin-dependent protein kinase type 1G (Homo sapiens) (Q96NX5 whole entry): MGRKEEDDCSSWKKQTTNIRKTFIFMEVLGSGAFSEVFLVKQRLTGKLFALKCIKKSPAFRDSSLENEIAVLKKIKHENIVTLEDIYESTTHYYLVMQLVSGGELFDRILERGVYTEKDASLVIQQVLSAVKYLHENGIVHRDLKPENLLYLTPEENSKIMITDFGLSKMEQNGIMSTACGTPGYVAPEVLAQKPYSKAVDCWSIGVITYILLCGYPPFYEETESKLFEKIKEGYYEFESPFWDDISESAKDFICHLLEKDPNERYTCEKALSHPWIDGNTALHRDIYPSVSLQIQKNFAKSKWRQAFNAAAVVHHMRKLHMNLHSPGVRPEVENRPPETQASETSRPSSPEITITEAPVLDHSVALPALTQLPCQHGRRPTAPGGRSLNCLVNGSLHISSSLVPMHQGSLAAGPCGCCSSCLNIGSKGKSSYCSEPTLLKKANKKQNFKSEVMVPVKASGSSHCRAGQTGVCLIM
Sequence of Aurora kinase B (Homo sapiens) (Q96GD4 whole entry): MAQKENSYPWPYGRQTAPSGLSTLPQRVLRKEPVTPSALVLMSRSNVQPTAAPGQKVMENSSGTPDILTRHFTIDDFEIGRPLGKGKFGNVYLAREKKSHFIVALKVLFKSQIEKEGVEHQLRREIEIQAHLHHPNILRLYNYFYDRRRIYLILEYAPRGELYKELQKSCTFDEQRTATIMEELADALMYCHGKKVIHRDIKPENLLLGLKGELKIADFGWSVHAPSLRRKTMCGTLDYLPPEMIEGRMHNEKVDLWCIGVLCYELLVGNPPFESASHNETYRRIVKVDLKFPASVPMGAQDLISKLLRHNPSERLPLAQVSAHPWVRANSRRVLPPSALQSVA

For orientation: inhibition means the percentage by which the read-out fell short of the control. Take `CCC[C@@H]1CNCc2c1[nH]c(=O)c(C#N)c2N1CCC2(CC1)CC2`: the delta Tm Staurosporine positive control in assay [1] stood at 14.1; in assay [2], 11.2; in assay [3], 17.7; in assay [4], 17.5; in assay [5], 7.21; in assay [6], 19.1. Moreover, the ΔTm in assay [1] is -0.199; in assay [2] it was -0.416; in assay [3] it was -0.154; in assay [4] it was -0.214; in assay [5], -0.679; in assay [6] it was -0.0429. Moreover, the figures for the inhibition in assay [7] and in assay [8] were 3.9% and 29.3%, respectively.

Take `CCC[C@H]1CNCc2c1[nH]c(=O)c(C#N)c2N1CCC2(CC1)CC2`: the delta Tm Staurosporine positive control in assay [1] was 14.1; in assay [2], 11.2; in assay [3] it was 17.7; in assay [4], 17.5; in assay [5], 7.21; in assay [6] it was 19.1. Also, the ΔTm in assay [1] was -0.229; in assay [2], -0.348; in assay [3], 0.00768; in assay [4], -0.331; in assay [5], -0.68; in assay [6], -0.0592. The values for the inhibition in assay [7] and in assay [8] were 5.53% and 34.3%, respectively.
